# Assay results published in patent publication US20060148679A1, “Glycosolated enkephalin agents” (priority 2003, published 2006).
# Tested on: male ICR mice
# Test: 55° C. tail flick test for antinociception
# Assay type: in vivo
# Experimental: The mouse anti-nociception tests were conducted with male ICR mice weighing 25-35 grams using the 55° C. tail flick test. A baseline latency was taken for each mouse. Then the mice were injected with drug and tested for antinociception at various times post-injection. A ten second cut off point was used to avoid tissue damage. The percent of antinociception was calculated as ((Test latency-Control Latency)/(10-Control Latency))×100. The majority of the drugs were tested at varying dosages.
# Note the in the nomenclature used in Table 2, the D-threonine residues are indicated at “t,” the “L-Ser” indicate the isomer of serine and not a second leucine, and the sugars are indicated in parenthesis at their site of attachment. The molecules have been tested for anti-nociception in the […] animal model using the standard tail flick assay. The molecules were tested for binding to the opioid receptors and for analgesic effect delivered either to the brain (ICV) or to the bloodstream (IV). Table 2 is appended to the end of this specification.
compound,measurement,setting,value
CN1CC[C@]23c4c5ccc(O)c4O[C@H]2[C@@H](O)C=C[C@H]3[C@H]1C5 [Morphine],IV (Mouse),delivered to the bloodstream (i.v.),6.3 µmol/kg
same,ICV (Mouse) IC50,delivered to the brain (i.c.v.),2.7 nmol
